Measurements: patent US11723890B2, “Methods of treatment using an mTORC1 modulator” (Navitor Pharmaceuticals, Inc., priority 2019, dated 2023)

Experiments:
[1] = Example 1 Part A: single ascending dose plasma pharmacokinetics; format: in vivo, human
Experimental: The in-house period was 6 days/5 nights.
Frequent PK sampling was included in the study to evaluate single-dose PK. Part B of the study included assessments designed to assess preliminary efficacy.
Single ascending doses of compound A were assessed in healthy adult males and females in Part A of a two-part, randomized, double-blind, placebo-controlled, first-in-humans Study (see Example 1, Part A).

healthy male volunteers = test: Example 3: safety and tolerability of two sequential doses in healthy male volunteers; format: in vivo, human; settings: healthy male subjects; two doses 2400 mg 48 hours apart
Experimental: Safety Endpoints: The safety endpoint was to assess the safety and tolerability of sequential doses of compound A vs. placebo in healthy male volunteers, as assessed by clinical laboratory parameters, physical, neurologic, and psychiatric examinations, vital signs, ECGs, EEGs, and adverse events.
This study was designed to evaluate the safety, tolerability, pharmacodynamics, and pharmacokinetics of two sequential doses of 2400 mg compound A (separated by 2 days), compared with placebo, in 24 healthy adult males (12 receiving compound A, 12 receiving placebo).

rat = test: Single oral dose toxicology study in rat; format: in vivo
Experimental: Nonclinical toxicology studies have been performed with compound A in the rat and cynomolgus monkey. Adverse effects were not observed after single oral doses of up to 500 mg/kg in rat and up to 2000 mg/kg in cynomolgus monkey.

[2] = tested on: BDNF and BDNF receptor (NTRK2); test: Example 2: CSF BDNF and BDNF receptor (NTRK2) fragment levels; format: in vivo, human; settings: healthy males; single oral 2400 mg; FIGS. 9 and 10
Text: Exploratory Objective(s): The exploratory objectives of this study were as follows using CSF and plasma samples collected over the same time frame as the PK samples: • conducted unbiased metabolomic analysis using validated methods as described: https://www.metabolon.com/what-we-do/our-technology. • conducted unbiased proteomic analysis using validated methods as described: https://www.biognosys.com/technology. Study Endpoints:
(§1) Pharmacokinetic, Metabolomic, and Proteomic Variables: Blood and CSF samples for the PK, metabolomics, and proteomic analysis of compound A were collected at various time points and were processed and analyzed by a validated method for determining concentrations of compound A.

[3] = Example 2: single-dose pharmacokinetics in plasma and CSF; format: in vivo, human; settings: healthy males, single oral 2400 mg
Experimental: Pharmacokinetics Endpoints: The following PK parameters for compound A were determined in serum and CSF, as appropriate: • Cmax: Maximum compound A concentration determined directly from the concentration-time profile • Tmax: Time of maximum compound A concentration determined directly from the concentration-time profile • AUClast: Area under the concentration-time curve from pre-dose (time 0) to the time of the last quantifiable concentration (tlast) calculated using the linear-log trapezoidal rule • AUCinf: Area under the concentration-time curve from pre-dose (time 0) extrapolated to infinite time (AUClast+Clast/λz) calculated using the linear-log trapezoidal rule • AUC% extrap: Percentage of AUCinf that is due to extrapolation beyond tlast • λz: The terminal elimination rate constant determined by selection of at least 3 data points on the terminal phase of the concentration-time curve. • t1/2: Terminal elimination half-life calculated as: ln 2/λz • CL/F: Apparent body clearance calculated as: Dose/AUCinf • Vz/F: Apparent volume of distribution calculated as: Dose/(AUCinf*λz) • MRT: Mean residence time (of the unchanged drug in the systemic circulation) as: AUMC/AUC • RA (AUC): Accumulation CSF/plasma ratio calculated as the ratios of the AUCinf,ss at steady state and AUCτ,sd after single dosing calculated as: AUCτ,ss/AUCτ,sd • RA (Cmax): Accumulation CSF/plasma ratio calculated as ratio of Cmax,ss at steady state and Cmax,sd after single dosing calculated as: Cmax,ss/Cmax,sd • CSF compound A concentrations over time and the ratio compared with time-matched plasma concentrations were also evaluated Overall Study Design: […]
as §1

subjects with TRD = test: Example 1 Part B: safety and tolerability of a single dose in subjects with TRD; settings: single oral 2400 mg
Text: In Part B of the study, approximately 32 subjects were randomly assigned to double-blind treatment in one cohort. […] The single-blind placebo lead-in treatment was intended to facilitate screening out placebo responders.
The study included standard safety and tolerability assessments—e.g., physical, neurological, and psychiatric examinations, vital signs, oral temperature, respiration rate, weight, 12-lead paper electrocardiograms (pECGs), dECGs, clinical laboratory tests, monitoring of adverse events (AEs) and concomitant medications, and, in Part A of the study, cardiovascular (CV) telemetry and safety EEGs.
Placebo was administered orally as a solution.

cynomolgus monkey = test: 14-day Q3D oral toxicology study in cynomolgus monkeys; settings: in vivo, po, 2000 mg/kg
Experimental: (§2) In cynomolgus monkeys administered 160, 500, or 2000 mg/kg PO Q3D for 14 days (5 doses total), the NOAEL was 160 mg/kg.
(§3) Precautions related to cardiovascular safety in this clinical study included frequent measurement of vital signs (e.g., blood pressure, pulse, and body temperature) and frequent electrocardiograms (ECGs).

[4] = as above; settings: cynomolgus monkey, in vivo; cynomolgus monkeys; 160, 500 or 2000 mg/kg PO Q3D for 14 days (5 doses); read-out: no-observed-adverse-effect level (NOAEL)
Experimental: as §2, §3

CC(C)(C[C@H](N)C(=O)O)C(F)F [Compound A, (S)-2-amino-5,5-difluoro-4,4-dimethylpentanoic acid]
CL/F and Vz/F estimates versus dose ([1]; 150 mg to 2400 mg): increased with dose | dose proportionality of Cmax and AUC∞ ([1]; 150 mg to 2400 mg): slightly less than dose-proportional | Tmax ([1]; both sexes, human, healthy volunteers, single oral 150-2400 mg, range among cohorts, post dose, read-out: Median Tmax): 0.5 to 1.5 h | half-life ([1]; both sexes, human, healthy volunteers, single oral 150-2400 mg, range among cohorts, read-out: terminal elimination half-life): 12.7 to 15.9 h | deaths, SAEs, discontinuations due to TEAEs, Grade 2 or 3 TEAEs (healthy male volunteers): no deaths or other SAEs, discontinuations due to TEAEs, or moderate (Grade 2) or severe (Grade 3) TEAEs | dissociative effects (healthy male volunteers): No dissociative effects were reported | incidence of TEAEs (healthy male volunteers): 8.3% | incidence of drug-related TEAEs (healthy male volunteers): 0% | proconvulsant activity on safety EEGs (healthy male volunteers): no evidence | safety and tolerability (healthy male volunteers): generally safe and well tolerated | severity of TEAEs (healthy male volunteers): mild (Grade 1) | finding after single oral dose (rat; in vivo, po, 2000 mg/kg): ataxia was noted | time by which ataxia resolved (rat; in vivo, po, 2000 mg/kg): ≤ 24 h | single oral dose up to which adverse effects were not observed (rat; single oral dose): up to 500 mg/kg | CSF BDNF and BDNF receptor (NTRK2) fragment levels [2]: rapid release of BDNF and receptor degradation | uptake into circulation and brain exposure [3]: rapid uptake of compound A into circulation with rapid brain exposure | human CSF levels ([3]; FIG. 8): consistent with rodent levels at the effective dose | half-life ([3]; male, human, in vivo): 10 to 13 h | Vitals, labs, and ECG findings (subjects with TRD): unremarkable | safety and tolerability (subjects with TRD): well tolerated, with no serious adverse events, and no discontinuations due to adverse events | severity of adverse events (subjects with TRD): mild-moderate | Deaths (subjects with TRD; n = 16): 0 | Discontinuations due to AE (subjects with TRD; n = 16): 0 | Serious AEs (subjects with TRD; n = 16): 0 | Subjects with at least 1 AE (subjects with TRD; n = 16): 11 (68.8) | TEAE: Back pain (subjects with TRD; n = 16): 1 | TEAE: Dizziness (subjects with TRD; n = 16): 2 | TEAE: Dizziness postural (subjects with TRD; n = 16): 1 | TEAE: Dry mouth (subjects with TRD; n = 16): 1 | TEAE: Dyspepsia (subjects with TRD; n = 16): 1 | TEAE: Feeling abnormal (subjects with TRD; n = 16): 1 | TEAE: Flatulence (subjects with TRD; n = 16): 1 | TEAE: Frequent bowel movements (subjects with TRD; n = 16): 1 | TEAE: Headache (subjects with TRD; n = 16): 2 | TEAE: Hypertension (subjects with TRD; n = 16): 1 | TEAE: Hyperthyroidism (subjects with TRD; n = 16): 1 | TEAE: Myalgia (subjects with TRD; n = 16): 1 | TEAE: Nausea (subjects with TRD; n = 16): 1 | TEAE: Nipple pain (subjects with TRD; n = 16): 1 | TEAE: Orthostatic hypotension (subjects with TRD; n = 16): 1 | TEAE: Sensory disturbance (subjects with TRD; n = 16): 1 | TEAE: Skin abrasion (subjects with TRD; n = 16): 1 | TEAE: Somnolence (subjects with TRD; n = 16): 4 | TEAE: T-wave inversion (subjects with TRD; n = 16): 1 | Total number of TEAEs (subjects with TRD; n = 16): 24 | BPRS+ and CADSS scores (subjects with TRD; vs placebo): comparable as between the treatment groups | adverse effects at 2000 mg/kg (cynomolgus monkey): dehydration in one animal, likely secondary to vomiting, and increased aspartate aminotransferase (AST) in one animal | NOAEL at 14 days [4]: 160 mg/kg
